Here are results for 4 compounds from publication PMC9804224, “Statin activation of skeletal ryanodine receptors (RyR1) is a class effect but separable from HMG‐CoA reductase inhibition” (British Journal of Pharmacology, 2022).

Each structure is given as a SMILES string. pEC50: −log10 of the molar value.

Common to all, as to format: biochemical
Test [1] deals with T1, skeletal ryanodine receptor (RyR1) (Ovis aries, UniProt A0ACI6NWU0). In words: single-channel recording in planar lipid bilayers (activation); also [3H]ryanodine binding EC50 […]. On the set-up: native RyR1 channels from skeletal muscle heavy SR vesicles.
In test [2] the target is T1, skeletal ryanodine receptor (RyR1). The description is as above. Further details: native RyR1 channels from skeletal muscle heavy SR vesicles. The source holds these as a separate data set.
For test [3] the target is unchanged. In words: increase of [3H]ryanodine binding to SR membrane vesicles (channel activation). On the set-up: native RyR1 in skeletal muscle SR membrane vesicles.

For the compound `CC(C)c1c(C(=O)Nc2ccccc2)c(-c2ccccc2)c(-c2ccc(F)cc2)n1CC[C@@H](O)C[C@@H](O)CC(=O)O` [atorvastatin], the negative-log EC50 (pEC50) in test [1] is 7.54.

For `COCc1c(C(C)C)nc(C(C)C)c(/C=C/[C@@H](O)C[C@@H](O)CC(=O)O)c1-c1ccc(F)cc1` [cerivastatin], in test [2], the negative logarithm of the EC50 (pEC50) is 6.89.

In turn, `CC[C@H](C)C(=O)O[C@H]1C[C@H](O)C=C2C=C[C@H](C)[C@H](CC[C@@H](O)C[C@@H](O)CC(=O)O)[C@H]21` [pravastatin] showed a negative logarithm of the EC50 (pEC50) in test [3] of 6.36.

`CC(C)c1nc(N(C)S(C)(=O)=O)nc(-c2ccc(F)cc2)c1/C=C/[C@@H](O)C[C@@H](O)CC(=O)O` [rosuvastatin]: in test [3] (read-out: EC50), the negative logarithm of the EC50 (pEC50) was 6.31.
